Patent publication US7276531B2, “G-lactam derivatives as prostaglandin agonists” (Applied Research Systems ARS Holding N.V., priority 2003, dated 2007)

Assays:
[1] = tested on: methacholine-induced bronchoconstriction; assay: In vivo inhibition of guinea pig broncho-constriction (methacholine-induced); conditions: Cavia porcellus, IT (intra-tracheal) route, read-out: calculated effective dose (ED50), bronchoconstriction
Text: The activity of compounds of the invention in dilation of bronchiolar muscles, may be tested in different models. Guinea pig pulmonary-cholinergic in vivo model is generally used to test the materials for the treatments of asthma in human (Fleisch et al., 1985) Compounds of the invention can be tested in this methacholine-induced bronchomuscle constriction model as described below.
Groups of 3 Duncan Hartley derived male or female guinea pigs weighing 250±50 g are anesthetized with pentobarbital sodium (50 mg/kg i.p., plus an additional 15 mg/kg i.p. if required) and succinylcholine chloride (2 mg/animal i.p.) is subsequently administered to prevent spontaneous respiration. Body temperature is maintained at 37° to 38° C.
The trachea is cannulated and the guinea pig is ventilated with a Harvard rodent respirator in a closed system. Tracheal pressure is recorded through a side-arm of the cannula connected to a P23ID Statham transducer. […] Mean arterial pressure (BP) is monitored from a cannulated carotid artery, and heart rate (HR) is obtained from chest electrodes arranged for lead II. […]
Compounds of the invention are also tested via intra-tracheal (IT) route of administration. […] Tracheal pressure (ITP), blood pressure and heart rate are measured immediately as indicated in the material and methods sections. […]

LPS-induced TNFα release = assay: In vivo inhibition of LPS-induced TNFα release in mice; conditions: LPS 0.3 mg/kg i.p.
Experimental: The anti-inflammatory activity of compounds of the invention may be assessed after a LPS challenge using the following protocol:
Eight weeks old C3H/H mice (IFFA-CREDO, L'arbresle, France) receive an oral treatment with compounds of the invention 6 different doses (0.001, 0.01, 0.1, 1 or 3 and 10 mg/kg in 0.5% CMC/0.25% tween-20). Six mice are used by group. Fifteen minutes later, endotoxins (O111:B4 Sigma, 0.3 mg/kg) are intraperitoneally injected. Heparinized whole blood is collected by decapitation. TNFα level is determined in plasma by ELISA (R & D Systems, Abdingdon, UK). Control animals receive 0.5% CMC/0.25% tween-20 (10 ml/kg) as vehicle. Data obtained from experiments are expressed as the mean±SEM and analysed using one-way analysis of variance (ANOVA) followed by Dunnett's t-test.

[2] = tested on: aspirin-induced gastric ulceration; assay: In vivo inhibition of aspirin-induced gastric ulceration; conditions: rats
Text: The activity of compounds of the invention as protective agents against gastric ulceration can be assayed as follows and as described in Guth et al., 1979. […]
Four hours later, animals are sacrificed and gastric ulceration is scored for degree of hemorrhage and severity of ulcerative lesions as follows: 0=no hyperemia or bleeding, 1=hyperaemia, 2=slight spot bleeding, 3=hyperemia plus slight spot bleeding, 4=hyperemia plus spot bleeding within entire stomach. Reduction of concurrent control score values by 50 percent or more (≧50%) is considered significant.

[3] = tested on: Dextran Sodium Sulfate-induced colitis; assay: In vivo inhibition of Dextran Sodium Sulfate-induced colitis; conditions: 0.1 mg/kg p.o. daily at days 3, 4, 5 and 6, DSS 4% mice
Text: The anti-inflammatory activity of compounds of the invention in colitis can be assayed as follows.
Within 6-10 days after ingesting Dextran Sodium Sulfate (DSS) mice show sign of diarrhea, rectal bleeding and weight loss and colonic mucosal lesions include multiple erosion, ulceration, and marked inflammatory cell infiltration.
Ulcerative colitis (UC) was induced in female mice (Balb/c, 20-22 g, Elevage Janvier) by Dextran Sodium Sulfate (DSS 4%) administered in drinking water. The mice had free access to DSS during 5 days.
The compounds of the invention were solubilized in […] and administered by gavage at days 3, 4, 5 and 6 after the induction of the UC.
The “treated group” wherein the animals have free access to DDS and are treated each day with compounds of the invention.
The “Dextran 4%” group wherein the animals have free access to DDS 4% and 0.5% CMC/O0.25% tween (vehicle) and are not treated.
• The body weight was determined daily. • The severity of the UC was assessed by a clinical score estimating the constituency of the stool (0=firm, 1=loose, 2=diarrhea) and the presence of blood (0=no blood, 1=occult blood, 2=gross rectal bleeding). • Seven days after the induction of the disease, the animals were sacrificed. The length and the weight of the colon were determined and the ratio Length/Weight/100 g body weight was calculated.
The percentages of inhibition of weight loss, of clinical scores and of increase in the ratio colon length/weight, are calculated as follows: % inhibition=(1−(“value for treated group”−“value for control group”/”value for Dextran 4% group”−“value for control group))*100.
The percentages of inhibition are calculated for each days 5, 6 and 7 for each parameter.

CCCC/C(C)=C/C=C\[C@H]1CCC(=O)N1CCc1ccc(C(=O)O)cc1 [Example 3, 4-(2-{(2R)-2-[(1Z,3E)-4-methylocta-1,3-dienyl]-5-oxopyrrolidin-1-yl}ethyl)benzoic acid]
ED50 [1]: 0.2 mg/kg
% of Inhibition of TNF Release Mean ± SEM (LPS-induced TNFα release; oral dose 0.001 mg/kg): 41 ± 5%
% of Inhibition of TNF Release Mean ± SEM (LPS-induced TNFα release; oral dose 0.01 mg/kg): 43 ± 7%
% of Inhibition of TNF Release Mean ± SEM (LPS-induced TNFα release; oral dose 0.1 mg/kg): 63 ± 3%
% of Inhibition of TNF Release Mean ± SEM (LPS-induced TNFα release; oral dose 1 mg/kg): 68 ± 3%
% of Inhibition of TNF Release Mean ± SEM (LPS-induced TNFα release; oral dose 10 mg/kg): 83 ± 3%
percentage of protection (gastric ulceration) ([2]; 10 mg/kg administered orally): 65%
Ulceration scores ([2]; aspirin 150 mg/kg oral gavage): decreased in a dose-dependent manner
improved clinical score, increase compared to non-treated animals [3]: 40%
increased colon weight/length, increase compared to non-treated animals [3]: 36%
inhibition of loss of body-weight compared to non-treated animals [3]: 39%
